The results in this text go back to patent publication US20210395256A1, “TYROSINE KINASE INHIBITORS, COMPOSITIONS AND METHODS THERE OF” (Betta Pharmaceuticals Co., Ltd., priority 2018, published 2021).

Data set [1] is described as follows: Plasma protein binding (equilibrium dialysis), rat. The class given is in vitro ADME. Conditions: pH 7.4, 6 hours dialysis; for fraction unbound at 6 h, 1 μM: read-out: Mean % Bound Rat (converted). Here is the method: (§1) Example 204 Plasma Protein Binding Measurements
(§2) The plasma protein binding was measured as the following procedure.
(§3) 1) Preparation of 100 mM sodium phosphate and 150 mM NaCl buffer (PBS)
(§4) A basic solution was prepared by dissolving 14.2 g/L Na2HPO4 and 8.77 g/L NaCl in deionized water and the solution could be stored at 4° C. for up to 7 days. An acidic solution was prepared by dissolving 12.0 g/L NaH2PO4 and 8.77 g/L NaCl in deionized water and the solution could be stored at 4° C. for up to 7 days. The basic solution was titrated with the acidic solution to pH 7.4 and store at 4° C. for up to 7 days. pH was checked on the day of experiment and was adjusted if outside specification of 7.4±0.1.
(§5) Frozen plasma was thawed immediately at room temperature.
(§6) The plasma was centrifuged at 3,220 g for 10 minutes to remove clots and supernatant was collected into a fresh tube. The pH of the plasma was checked and recorded.
(§7) Note: a). Only use plasma that has been thawed no more than twice since arrival. b). Only use plasma within the range of pH 7 to pH 8.
(§8) 3) Preparation of working solutions
(§9) The working solutions of test compounds and control compound ketoconazole were prepared in DMSO at the concentration of 200 μM. And then 3 μL of working solution was removed to mix with 597 μL of human, rat or mouse plasma to achieve a final concentration of 1 μM (0.5% DMSO). Plasma samples were vortexed thoroughly.
(§10) 4) Preparation of dialysis membranes
(§11) The dialysis membranes were soaked in ultrapure water for 60 minutes to separate strips, then in 20% ethanol for 20 minutes, finally in dialysis buffer for 20 minutes.
(§12) 5) Procedure for equilibrium dialysis
(§13) The dialysis apparatus was assembled according to the manufacturer's instruction. Each cell was filled with 120 μL of plasma sample and dialyzed against equal volume of dialysis buffer (PBS). The assay was performed in duplicate. The dialysis plate was sealed and incubated in an incubator at 37° C. with 5% CO2 at 100 rpm for 6 hours. At the end of incubation, seal was removed and 50 μL of samples from both buffer and plasma chambers were transferred to wells of a 96-well plate.
(§14) 6) Procedure for sample analysis
(§15) 50 μL of blank plasma was added to each buffer samples and an equal volume of PBS was supplemented to the collected plasma sample. 300 μL of room temperature quench solution (acetonitrile containing internal standards (1S, 100 nM Alprazolam, 500 nM Labetalol and 2 μM Ketoprofen)) was added to precipitate protein. Samples in plate were vortexed for 5 minutes and centrifuged at 3,220 g for 30 minutes at 4° C. And then 100 μL of the supernatant was transferred to a new 96-well plate with 100 μL or 200 μL water (depends on the LC-MS signal response and peak shape) for LC-MS/MS analysis.
(§16) Calculate the percentages of test compound and control compound bound as follows:
(§17) % Free=(Peak Area Ratiobuffer chamber/Peak Area Ratioplasma chamber)*100
(§18) % Recovery=(Peak Area Ratiobuffer chamber+Peak Area Ratioplasma chamber)/Peak Area Ratio total sample*100
(§19) Peak Area Ratiobuffer chamber means the conc for free fraction
(§20) Peak Area Ratioplasma chamber means the conc for both free and bound fraction
(§21) Peak Area Ratiototal sample means the conc for starting sample before incubation

The nature of data set [2]: Plasma protein binding (equilibrium dialysis), mouse. The class given is in vitro ADME. Conditions: pH 7.4, 6 hours dialysis; for fraction unbound at 6 h, 1 μM: read-out: Mean % Bound Mouse (converted). Here is the method: as §1, §2, §3, §4, §5, §6, §7, §8, §9, §10, §11, §12, §13, §14, §15, §16, §17, §18, §19, §20, §21
The target of the next data set is T1, Ba/F3-TPM3-NTRK1 (Homo sapiens, UniProt P04629).
T1 construct: expressed in transfected cells; host or cells: Ba/F3; the other entry of the earlier key: TPM3 (P06753, Tropomyosin alpha-3 chain)
Kind of data set: Ba/F3-TPM3-NTRK1 cells proliferation assay. The settings on record: 72 h, CellTiter Glo. It counts as cell-based. The gist of the method: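 Ba/F3 cells stably expressing TPM3-NTRK1 or ETV6-NTRK3 fusions, 2000/well, exposed 72 h to compound at 300 to 0.05 nM final (3-fold series, 0.5% DMSO). Viability by CellTiter-Glo luminescence; IC50 by four-parameter nonlinear regression.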

T1 sequence (P04629 510-796 limits assumed): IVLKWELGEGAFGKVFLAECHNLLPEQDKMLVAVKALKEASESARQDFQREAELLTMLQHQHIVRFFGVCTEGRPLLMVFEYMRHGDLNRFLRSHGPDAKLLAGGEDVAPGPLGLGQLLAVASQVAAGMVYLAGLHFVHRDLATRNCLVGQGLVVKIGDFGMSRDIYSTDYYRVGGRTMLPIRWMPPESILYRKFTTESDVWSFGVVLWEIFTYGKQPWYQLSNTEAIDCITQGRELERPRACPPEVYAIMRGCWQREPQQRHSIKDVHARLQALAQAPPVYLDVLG

With `Cc1nnc(-c2cnn3ccc(N4CCCC4c4cc(F)ccc4F)nc23)[nH]1` (stereo not shown) [Comparative compound A, 5-[2-(2,5-Difluorophenyl)pyrrolidin-1-yl]-3-(5-methyl-1H-1,2,4-triazol-3-yl)pyrazolo[1,5-a]pyrimidine, reference compound], in data set [1], the recovery at 6 h, 1 μM worked out at 93.8% and the fraction unbound at 6 h, 1 μM is 0.0729. In data set [2], the recovery at 6 h, 1 μM stood at 89.4% and the fraction unbound at 6 h, 1 μM was 0.0488.
In the case of `C[C@H](O)c1nnc(-c2cnn3ccc(N4CCC[C@@H]4c4cc(F)ccc4F)nc23)[nH]1` [Compound 4, (S)-1-(5-(5-((R)-2-(2,5-difluorophenyl)pyrrolidin-1-yl)pyrazolo[1,5-a]pyrimidin-3-yl)-4H-1,2,4-triazol-3-yl)ethan-1-ol], the midpoint of inhibition on Ba/F3-TPM3-NTRK1, the IC50, lay at 3.55 nM. Besides, the fraction unbound at 6 h, 1 μM in data set [1] was 0.1; in data set [2] it was 0.0443.
At Ba/F3-TPM3-NTRK1, `CC(C)(O)c1nnc(-c2cnn3ccc(N4CCC[C@@H]4c4cc(F)ccc4F)nc23)[nH]1` [Compound 7, (R)-2-(5-(5-(2-(2,5-difluorophenyl)pyrrolidin-1-yl)pyrazolo[1,5-a]pyrimidin-3-yl)-4H-1,2,4-triazol-3-yl)propan-2-ol] showed an IC50 of 8.17 nM. The recovery at 6 h, 1 μM in data set [1] came out at 90.8%; in data set [2], 89.4%. For the same compound, the fraction unbound at 6 h, 1 μM in data set [2] was 0.0929.
As for `C[C@H](N)c1nnc(-c2cnn3ccc(N4CCC[C@@H]4c4cc(F)ccc4F)nc23)[nH]1` [Compound 11, (S)-1-(5-(5-((R)-2-(2,5-difluorophenyl)pyrrolidin-1-yl)pyrazolo[1,5-a]pyrimidin-3-yl)-4H-1,2,4-triazol-3-yl)ethan-1-amine], half-maximal inhibition against Ba/F3-TPM3-NTRK1 (IC50) required 13.6 nM. Moreover, in data set [1], the recovery at 6 h, 1 μM was 87.5% and the fraction unbound at 6 h, 1 μM was 0.289. Moreover, in data set [2], the recovery at 6 h, 1 μM is 85.5% and the fraction unbound at 6 h, 1 μM was 0.244.
`OC1(c2nnc(-c3cnn4ccc(N5CCC[C@@H]5c5cc(F)ccc5F)nc34)[nH]2)CCC1` [Compound 23, (R)-1-(5-(5-(2-(2,5-difluorophenyl)pyrrolidin-1-yl)pyrazolo[1,5-a]pyrimidin-3-yl)-4H-1,2,4-triazol-3-yl)cyclobutan-1-ol] came in with an IC50 against Ba/F3-TPM3-NTRK1 of 20.9 nM. The fraction unbound at 6 h, 1 μM in data set [1] is 0.0699; in data set [2] it was 0.0397.
The compound `CC(C)(O)Cc1nnc(-c2cnn3ccc(N4CCC[C@@H]4c4cc(F)ccc4F)nc23)[nH]1` [Compound 30, (R)-1-(5-(5-(2-(2,5-difluorophenyl)pyrrolidin-1-yl)pyrazolo[1,5-a]pyrimidin-3-yl)-4H-1,2,4-triazol-3-yl)-2-methylpropan-2-ol] displayed an IC50 at Ba/F3-TPM3-NTRK1 of 13.8 nM. In data set [1], the recovery at 6 h, 1 μM is 92.5% and the fraction unbound at 6 h, 1 μM was 0.174. Moreover, in data set [2], the recovery at 6 h, 1 μM was determined as 90% and the fraction unbound at 6 h, 1 μM is 0.0887.
For the compound `OC1CC(c2nnc(-c3cnn4ccc(N5CCC[C@@H]5c5cc(F)ccc5F)nc34)[nH]2)C1` (stereo partly drawn) [Compound 31, (R)-3-(5-(5-(2-(2,5-difluorophenyl)pyrrolidin-1-yl)pyrazolo[1,5-a]pyrimidin-3-yl)-4H-1,2,4-triazol-3-yl)cyclobutan-1-ol], on Ba/F3-TPM3-NTRK1, the IC50 worked out at 3.88 nM. The results for the recovery at 6 h, 1 μM in data set [1] and in data set [2] were 98.9% and 94.2%, respectively. Further, the figures for the fraction unbound at 6 h, 1 μM in data set [1] and in data set [2] were 0.131 and 0.0998, respectively.
On the same counts, the results for `C[C@@H](CO)c1nnc(-c2cnn3ccc(N4CCC[C@@H]4c4cc(F)ccc4F)nc23)[nH]1` [Compound 39, (R)-2-(5-(5-((R)-2-(2,5-difluorophenyl)pyrrolidin-1-yl)pyrazolo[1,5-a]pyrimidin-3-yl)-4H-1,2,4-triazol-3-yl)propan-1-ol] are 7.42 nM, 89.7%, 91.3%, 0.116 and 0.0676.
